Experimental data as given in paper PMC6100582 (Molecules : A Journal of Synthetic Chemistry and Natural …, 2018).
Values after ≈ are worked out from the molar mass of the structure shown. Like-named read-outs stand apart in the source and are kept apart here.

Key:
[1] = tested on: Staphylococcus aureus ATCC 6538; test: Antimicrobial susceptibility assay in vitro (MIC determination); type: cell-based; conditions: ATCC6538
[2] = tested on: Acinetobacter baumannii MFBF 10913; test: as above; type: cell-based; conditions: MFBF10913, serial microdilution, 18 h, 35 °C
Protocol: (§1) Stock solutions of the tested compounds were prepared in DMSO (10 mg/mL). […] The absorbance was recorded at 540 nm. As a positive quality control (susceptibility of strains) tetracycline hydrochloride (TC) (Sigma-Aldrich) was added into wells.

[3] = tested on: Bacillus cereus ATCC 11778; test: as above; type: cell-based; conditions: ATCC11778, serial microdilution, 18 h, 35 °C
Protocol: as §1

[4] = tested on: Bacillus subtilis ATCC 6633; test: as above; type: cell-based; conditions: ATCC6633, serial microdilution, 18 h, 35 °C
Protocol: as §1

[5] = tested on: Streptococcus pneumoniae MFBF 10373; test: as above; type: cell-based; conditions: MFBF10373, serial microdilution, 18 h, 35 °C
Protocol: as §1

[6] = tested on: Acinetobacter baumannii MFBF 10913; test: Minimum biofilm eradication assay; type: cell-based
Protocol: (§2) MBECs of fumardiamides 4a–f and succindiamides 5a–f were determined as follows. Each well (96-well plate) was filled with 100 µl of bacterial (10^7 CFU/mL) or yeast (5 × 10^6 CFU/mL) suspension. When the inhibition of yeast biofilm formation was tested, the wells were pre-treated with fetal bovine serum (FBS) (250 µl per well). Negative controls contained broth only. Positive controls were performed using standard antimicrobial drugs gentamycin (Gen) and Amph, respectively. […] Following incubation period, each well was aspirated, washed three times and vigorously shaken to remove all non-adherent bacteria/yeast. The remaining attached cells were fixed with methanol (15 min) and the plates were left to dry overnight. Formed biofilm was stained with crystal violet (1%, 5 min). Excess stain was rinsed by placing the plate under running tap water and the plates were left to dry. Adherent cells were solubilized using ethanol. The absorbance was read at 570 nm. The MBEC value represents the lowest dilution of a compound at which bacteria fail to grow.

[7] = tested on: Bacillus cereus ATCC 11778; test: Minimum biofilm eradication assay; type: cell-based
Protocol: as §2

[8] = tested on: Bacillus subtilis ATCC 6633; test: Minimum biofilm eradication assay; type: cell-based
Protocol: as §2

[9] = tested on: Enterococcus faecalis ATCC 29212; test: Minimum biofilm eradication assay; type: cell-based
Protocol: as §2

[10] = tested on: Escherichia coli ATCC 10536; test: Minimum biofilm eradication assay; type: cell-based
Protocol: as §2

[11] = tested on: Proteus mirabilis MFBF 10430; test: Minimum biofilm eradication assay; type: cell-based
Protocol: as §2

[12] = tested on: Pseudomonas aeruginosa ATCC 27853; test: Minimum biofilm eradication assay; type: cell-based
Protocol: as §2

[13] = tested on: Salmonella enteritidis MFBF 11945; test: Minimum biofilm eradication assay; type: cell-based
Protocol: as §2

[14] = tested on: Serratia marcescens ATCC 10905; test: Minimum biofilm eradication assay; type: cell-based
Protocol: as §2

[15] = tested on: Staphylococcus aureus ATCC 6538; test: Minimum biofilm eradication assay; type: cell-based
Protocol: as §2

[16] = tested on: Streptococcus pneumonia MFBF 10373; test: Minimum biofilm eradication assay; type: cell-based, Streptococcus pneumoniae
Protocol: as §2

Para-Influenza-3 Virus = test: organism not typed; type: cell-based
Reovirus-1 = test: Antiviral activity in Vero cell cultures; type: cell-based
Sindbis Virus = test: microbe, parasite or virus in culture; type: cell-based; conditions: Vero
Coxsackie Virus B4 = test: Antiviral activity in Vero cell cultures; type: cell-based; conditions: Enterovirus B
Punta Toro Virus = test: microbe, parasite or virus in culture; type: cell-based
Yellow Fever Virus = test: microbe, parasite or virus in culture; type: cell-based; conditions: Vero
[17] = tested on: Capan-1 (pancreatic adenocarcinoma); test: Antiproliferative screening (cytostatic activity); type: cell-based; conditions: Homo sapiens, CAPAN-1, 72 h, read-out: IC50 Capan-1
Protocol: (§3) All human tumor cell lines were acquired from the American Type Culture Collection (ATCC, Manassas, VA, USA), except for the DND-41 cell line which was purchased from the Deutsche Sammlung von Mikroorganismen und Zellkulturen (DSMZ Leibniz-Institut, Braunschweig, Germany) and the Hap1 cell line which was purchased from Horizon Discovery (Waterbeach, UK). […] All media were supplemented with 10% FBS (HyClone, GE Healthcare Life Sciences, USA). […] After overnight incubation, cells were treated with test compounds at four different concentrations ranging from 100 to 0.8 µM. […] Images were taken every 3 h, with one field image per well under 10× magnification. All compounds were tested with duplicate data points and averaged.

[18] = tested on: HCT-116 (colorectal carcinoma); test: Antiproliferative screening (cytostatic activity); type: cell-based; conditions: Homo sapiens, HCT-116, 72 h, read-out: IC50 HCT-116
Protocol: as §3

[19] = tested on: K-562 (chronic myeloid leukemia); test: Antiproliferative screening (cytostatic activity); type: cell-based; conditions: Homo sapiens, K562, 72 h, read-out: IC50 K-562
Protocol: as §3

MM.1S (multiple myeloma) = test: Antiproliferative screening (cytostatic activity); type: cell-based; conditions: Homo sapiens, MM1.S, 72 h, read-out: IC50 MM.1S
Protocol: as §3

[20] = tested on: NCI-H460 (lung carcinoma); test: Antiproliferative screening (cytostatic activity); type: cell-based; conditions: Homo sapiens, NCI-H460, 72 h, read-out: IC50 NCI-H460
Protocol: as §3

[21] = tested on: Z-138 (non-Hodgkin lymphoma); test: Antiproliferative screening (cytostatic activity); type: cell-based; conditions: Homo sapiens, Z-138, 72 h, read-out: IC50 Z-138
Protocol: as §3

[22] = tested on: HL-60 (acute myeloid leukemia); test: Antiproliferative screening (cytostatic activity); type: cell-based; conditions: Homo sapiens, HL-60, 72 h, read-out: IC50 HL-60
Protocol: (§4) Cytostatic activity was evaluated in vitro on nine different types of human tumor cell lines: Capan-1, Hap1, HCT-116, and NCI-H460, as well as hematological tumors such as DND-41, HL-60, K-562, MM.1S and Z-138 as described previously. All human tumor cell lines were acquired from the American Type Culture Collection (ATCC, Manassas, VA, USA), except for the DND-41 cell line which was purchased from the Deutsche Sammlung von Mikroorganismen und Zellkulturen (DSMZ Leibniz-Institut, Braunschweig, Germany) and the Hap1 cell line which was purchased from Horizon Discovery (Waterbeach, UK). Capan-1, Hap1, HL-60, K-562, Z-138, MM.1S and DND-41 were cultured in Iscove′s Modified Dulbecco′s Medium (IMDM, Gibco Life Technologies, Gaithersburg, MD, USA), HCT-116 were grown in McCoy′s 5A Medium (Gibco Life Technologies) and NCI-H460 were cultured in RPMI (Gibco Life Technologies). All media were supplemented with 10% FBS (HyClone, GE Healthcare Life Sciences, USA). Adherent cell lines HCT-116, Hap1, NCI-H460, and Capan-1 cells were seeded at a density between 400 and 1250 cells per well, in 384-well, black-walled, clear-bottomed tissue culture plates (Greiner Bio-One, Kremsmünster, Germany). After overnight incubation, cells were treated with test compounds at four different concentrations ranging from 100 to 0.8 µM. Suspension cell lines HL-60, K-562, Z-138, MM.1S, and DND-41 were seeded at densities ranging from 3000 to 10,000 cells per well in 384-well, black-walled, clear-bottomed tissue culture plates containing test compounds at the same four concentrations. The plates were incubated and monitored at 37 °C for 72 h in an IncuCyte (Essen BioScience Inc., Ann Arbor, MI, USA) for real-time imaging. Images were taken every 3 h, with one field image per well under 10× magnification. All compounds were tested with duplicate data points and averaged. […]

[23] = tested on: Hap1 (chronic myeloid leukemia); test: Antiproliferative screening (cytostatic activity); type: cell-based; conditions: Homo sapiens, HAP1, 72 h, read-out: IC50 Hap1
Protocol: as §4

[24] = tested on: DND-41 (acute lymphoblastic leukemia); test: Antiproliferative screening (cytostatic activity); type: cell-based, human; conditions: Homo sapiens, DND41, 72 h, read-out: IC50 DND-41
Protocol: as §4

Vero cell cultures = conditions: African green monkey
in vitro = conditions: African green monkey
[25] = tested on: Candida albicans ATCC 90028; test: In vitro antifungal susceptibility testing (MIC determination); type: cell-based; conditions: ATCC90028
[26] = Vero cells, MTS, read-out: EC50 Para-Influenza-3 Virus, MTS
[27] = read-out: EC50 Sindbis Virus, MTS
[28] = Vero cells, MTS, read-out: EC50 Punta Toro Virus, MTS
[29] = read-out: EC50 Yellow Fever Virus, MTS
[30] = Vero cells, MTS, read-out: EC50 Reovirus-1, MTS
[31] = Vero cells, visual CPE score, read-out: EC50 Reovirus-1, Visual CPE Score
[32] = read-out: EC50 Sindbis Virus, Visual CPE Score
[33] = B4, Vero cells, MTS, read-out: EC50 Coxsackie Virus B4, MTS
[34] = B4, Vero cells, visual CPE score, read-out: EC50 Coxsackie Virus B4, Visual CPE Score
[35] = read-out: EC50 Yellow Fever Virus, Visual CPE Score

For `CN(C)[C@@H]1C(O)=C(C(N)=O)C(=O)[C@@]2(O)C(O)=C3C(=O)c4c(O)cccc4[C@@](C)(O)[C@H]3C[C@@H]12` [TC, tetracycline, reference compound], the MIC [1] was 0.3 µg/mL (≈ 0.675 µM), the MIC [2] was 3 µg/mL (≈ 6.75 µM) and the MIC [3] was 0.3 µg/mL (≈ 0.675 µM). The MIC [4] was 0.3 µg/mL (≈ 0.675 µM) and the MIC [5] was 0.3 µg/mL (≈ 0.675 µM).
With gentamycin [reference compound] the MBEC [6] was 25 µg/mL, the MBEC [7] was 50 µg/mL and the MBEC [8] was 50 µg/mL. The MBEC [9] was 50 µg/mL, the MBEC [10] was 25 µg/mL and the MBEC [11] was 50 µg/mL. For the same compound, the MBEC [12] was 50 µg/mL, the MBEC [13] was 50 µg/mL and the MBEC [14] was 50 µg/mL. It also gave an MBEC [15] of 12.5 µg/mL and an MBEC [16] of 25 µg/mL.
`COc1cc(NC(C)CCCN)c2ncccc2c1` (stereo not drawn) [PQ, primaquine, reference compound] showed an MBEC [6] of 50 µg/mL, an MBEC [7] of 70 µg/mL and an MBEC [8] of 80 µg/mL. The MBEC [9] was >100 µg/mL, the MBEC [10] was 65 µg/mL and the MBEC [11] was >100 µg/mL. For the same compound, the MBEC [12] was 65 µg/mL, the MBEC [13] was 70 µg/mL and the MBEC [14] was >100 µg/mL. The MBEC [15] was 50 µg/mL, the MBEC [16] was 70 µg/mL and the EC50 (Para-Influenza-3 Virus; [26]) was > 50 µM. The EC50 (Reovirus-1; Vero, read-out: EC50 Reovirus-1, MTS) was > 50 µM, the EC50 (Sindbis Virus; [27]) was > 50 µM and the EC50 (Coxsackie Virus B4; B4, Vero, read-out: EC50 Coxsackie Virus B4, MTS) was > 50 µM. The EC50 (Punta Toro Virus; [28]) was > 50 µM, the EC50 (Yellow Fever Virus; [29]) was > 50 µM and the IC50 [17] was 18.7 µM. For the same compound, the IC50 [18] was 30.9 µM, the IC50 [19] was 35.2 µM and the IC50 (MM.1S (multiple myeloma)) was 28.3 µM. The IC50 [20] was 52.6 µM, the IC50 [21] was 7.1 µM and the IC50 [22] was 2.2 µM. The IC50 [23] was 42.7 µM and the IC50 [24] was 11.4 µM.
With `COc1c(C)c2c(c(O)c1C/C=C(\C)CCC(=O)O)C(=O)OC2` [MPA, mycophenolic acid, reference compound] the EC50 (Para-Influenza-3 Virus; [26]) was 1 µM, the EC50 (Reovirus-1; [30]) was 0.6 µM and the EC50 (Reovirus-1; [31]) was 0.8 µM. The EC50 (Sindbis Virus; [27]) was 12 µM, the EC50 (Sindbis Virus; [32]) was 1.7 µM and the EC50 (Coxsackie Virus B4; [33]) was > 100 µM. For the same compound, the EC50 (Coxsackie Virus B4; [34]) was > 100 µM, the EC50 (Punta Toro Virus; [28]) was 11 µM and the EC50 (Punta Toro Virus; Vero cells, visual CPE score, read-out: EC50 Punta Toro Virus, Visual CPE Score) was 8.9 µM. For the same compound, the EC50 (Yellow Fever Virus; [29]) was 0.5 µM, the EC50 (Yellow Fever Virus; [35]) was 0.8 µM and the “Cytotoxicity MCC (minimum cytotoxic concentration)” value (Vero cell cultures) was >100. For the same compound, the CC50 (in vitro) was > 100 µg/mL.
`NC(=O)c1ncn([C@@H]2O[C@H](CO)[C@@H](O)[C@H]2O)n1` [RIB, ribavirin, reference compound] gave an EC50 (Para-Influenza-3 Virus; Vero, read-out: EC50 Para-Influenza-3 Virus, MTS) of 73 µM, an EC50 (Para-Influenza-3 Virus; Vero, read-out: EC50 Para-Influenza-3 Virus, Visual CPE Score) of 111 µM and an EC50 (Reovirus-1; [30]) of 107 µM. For the same compound, the EC50 (Reovirus-1; [31]) was 126 µM, the EC50 (Sindbis Virus; [27]) was > 250 µM and the EC50 (Sindbis Virus; [32]) was 11 µM. For the same compound, the EC50 (Coxsackie Virus B4; [33]) was > 250 µM, the EC50 (Coxsackie Virus B4; [34]) was > 250 µM and the EC50 (Punta Toro Virus; Vero, read-out: EC50 Punta Toro Virus, MTS) was 85 µM. The EC50 (Punta Toro Virus; Vero, read-out: EC50 Punta Toro Virus, Visual CPE Score) was 111 µM, the EC50 (Yellow Fever Virus; [29]) was 119 µM and the EC50 (Yellow Fever Virus; [35]) was > 250 µM. The CC50 (in vitro) was > 250 µg/mL.
`C[C@@H]1[C@H](O)[C@@H](C)/C=C/C=C/C=C/C=C/C=C/C=C/C=C/[C@H](O[C@@H]2O[C@H](C)[C@@H](O)[C@H](N)[C@@H]2O)C[C@@H]2O[C@](O)(C[C@@H](O)C[C@@H](O)[C@H](O)CC[C@@H](O)C[C@@H](O)CC(=O)O[C@H]1C)C[C@H](O)[C@H]2C(=O)O` [Amph, amphotericin B, reference compound] gave an MIC [25] of 0.5 µg/mL (≈ 0.541 µM).
